Each substance was assayed on E. coli TOP10 (assay: Suicide expression system (SES) growth inhibition). Conditions: Table 1; 0.1% inducer (arabinose), pBAD/gIIIA in E. coli TOP10, Bioscreen C 37° C., end point OD450 vs control vector.
Assay type: cell-based

Question: Which “Growth inhibition (%)” value does the source give for “1 (RRRPPRFPPRFPPRFPPRFPPRFPPRF; Synthetic antimicrobial peptide) [compound 1]” here?
Answer: 48%

Question: How did the “Growth inhibition (%)” value turn out when “2 (RRRPRFPPRFPPRFPPRFPPRFPPRFP; Synthetic antimicrobial peptide) [compound 2]” was run?
Answer: 45%

Question: Which “Growth inhibition (%)” value does the source give for “3 (RRRRFPPRFPPRFPPRFPPRFPPRFPP; Synthetic antimicrobial peptide) [compound 3]” here?
Answer: 43%

Question: Which “Growth inhibition (%)” value does the source give for “4 (RRRFPPRFPPRFPPRFPPRFPPRFPPR; Synthetic antimicrobial peptide) [compound 4]” here?
Answer: 46%

Question: With “5 (RRRPRPFPRPFPRPFPRPFPRPFPRPF; Synthetic antimicrobial peptide) [compound 5]” as the substance, how does the “Growth inhibition (%)” value read?
Answer: 57%

Question: With “6 (RRRRPFPRPFPRPFPRPFPRPFPRPFP; Synthetic antimicrobial peptide) [compound 6]” as the substance, how does the “Growth inhibition (%)” value read?
Answer: 57%

Question: With “7 (RRRPFPRPFPRPFPRPFPRPFPRPFPR; Synthetic antimicrobial peptide) [compound 7]” as the substance, how does the “Growth inhibition (%)” value read?
Answer: 39%

Question: With “8 (RRRFPRPFPRPFPRPFPRPFPRPFPRP; Synthetic antimicrobial peptide) [compound 8]” as the substance, how does the “Growth inhibition (%)” value read?
Answer: 38%

Question: With “9 (RRRPPFRPPFRPPFRPPFRPPFRPPFR; Synthetic antimicrobial peptide) [compound 9]” as the substance, how does the “Growth inhibition (%)” value read?
Answer: 67%

Question: “10 (RRRPFRPPFRPPFRPPFRPPFRPPFRP; Synthetic antimicrobial peptide) [compound 10]” was tested. Which “Growth inhibition (%)” value did it give?
Answer: 78%

Question: “11 (RRRFRPPFRPPFRPPFRPPFRPPFRPP; Synthetic antimicrobial peptide) [compound 11]” was tested. Which “Growth inhibition (%)” value did it give?
Answer: 73%

Question: Which “Growth inhibition (%)” value does the source give for “12 (RRRRPPFRPPFRPPFRPPFRPPFRPPF; Synthetic antimicrobial peptide) [compound 12]” here?
Answer: 76%

Same assay, conditions: Table 2; variants of SEQ ID NO:1, re-tested in the Bioscreen C

Question: For “13 (RRRPPRFPPRFPPRFPPRFPPRFPPRF; Synthetic antimicrobial peptide) [compound 13]”, which “Growth inhibition (%)” value is on record?
Answer: 51%

Question: How did the “Growth inhibition (%)” value turn out when “14 (RRRPPRFPPRIPPRFPPRLPPRIPPRL; Synthetic antimicrobial peptide) [compound 14]” was run?
Answer: 90%

Question: How did the “Growth inhibition (%)” value turn out when “15 (RRRPPRFPPRIPPRLPPRVPPRVPPRL; Synthetic antimicrobial peptide) [compound 15]” was run?
Answer: 57%

Question: How did the “Growth inhibition (%)” value turn out when “16 (RRRPPRIPPRFPPRVPPRFPPRVPPRV; Synthetic antimicrobial peptide) [compound 16]” was run?
Answer: 98%

Question: Which “Growth inhibition (%)” value does the source give for “17 (RRRPPRIPPRLPPRIPPRFPPRFPPRL; Synthetic antimicrobial peptide) [compound 17]” here?
Answer: 95%

Question: “18 (RRRPPRLPPRFPPRFPPRIPPRFPPRI; Synthetic antimicrobial peptide) [compound 18]” was tested. Which “Growth inhibition (%)” value did it give?
Answer: 99%

Question: How did the “Growth inhibition (%)” value turn out when “19 (RRRPPRLPPRFPPRFPPRIPPRFPPRI; Synthetic antimicrobial peptide) [compound 19]” was run?
Answer: 78%

Question: Which “Growth inhibition (%)” value does the source give for “20 (RRRPPRLPPRFPPRFPPRVPPRFPPRV; Synthetic antimicrobial peptide) [compound 20]” here?
Answer: 86%

Question: “21 (RRRPPRLPPRFPPRFPPRVPPRFPPRV; Synthetic antimicrobial peptide) [compound 21]” was tested. Which “Growth inhibition (%)” value did it give?
Answer: 86%

Question: “22 (RRRPPRLPPRFPPRFPPRVPPRLPPRF; Synthetic antimicrobial peptide) [compound 22]” was tested. Which “Growth inhibition (%)” value did it give?
Answer: 81%

Question: For “23 (RRRPPRLPPRFPPRFPPRVPPRVPPRF; Synthetic antimicrobial peptide) [compound 23]”, which “Growth inhibition (%)” value is on record?
Answer: 82%

Question: How did the “Growth inhibition (%)” value turn out when “24 (RRRPPRLPPRFPPRFPPRVPPRVPPRF; Synthetic antimicrobial peptide) [compound 24]” was run?
Answer: 90%

Question: Which “Growth inhibition (%)” value does the source give for “25 (RRRPPRLPPRFPPRFPPRVPPRVPPRI; Synthetic antimicrobial peptide) [compound 25]” here?
Answer: 81%

Question: Which “Growth inhibition (%)” value does the source give for “26 (RRRPPRVPPRFPPRVPPRFPPRVPLRL; Synthetic antimicrobial peptide) [compound 26]” here?
Answer: 86%

Question: How did the “Growth inhibition (%)” value turn out when “27 (RRRPPRLPPRLPPRLPPRVPPRVPLVSNCSRTKTHLRRGSE; Synthetic antimicrobial peptide) [compound 27]” was run?
Answer: 90%

Same assay, conditions: Table 3; variants of SEQ ID NO:5, re-tested in the Bioscreen C

Question: For “28 (RRRPRPFPRPFPRPFPRPFPRPFPRPF; Synthetic antimicrobial peptide) [compound 28]”, which “Growth inhibition (%)” value is on record?
Answer: 57%

Question: Which “Growth inhibition (%)” value does the source give for “29 (RRRPRLPRPFPRPVPRPLPRPVPRPI; Synthetic antimicrobial peptide) [compound 29]” here?
Answer: 63%

Question: For “30 (RRRPRPFPPPFPRPIPRPFPRPFPRPL; Synthetic antimicrobial peptide) [compound 30]”, which “Growth inhibition (%)” value is on record?
Answer: 61%

Question: “31 (RRRPRPFPRPFPHPFPRPFPRPIPRPI; Synthetic antimicrobial peptide) [compound 31]” was tested. Which “Growth inhibition (%)” value did it give?
Answer: 73%

Question: “32 (RRRPRPFPRPFPHPIPRPLPRPFPRPI; Synthetic antimicrobial peptide) [compound 32]” was tested. Which “Growth inhibition (%)” value did it give?
Answer: 77%

Question: For “33 (RRRPRPFPRPFPRPFPRPFPRPFPRPF; Synthetic antimicrobial peptide) [compound 33]”, which “Growth inhibition (%)” value is on record?
Answer: 79%

Question: How did the “Growth inhibition (%)” value turn out when “34 (RRRPRPFPRPFPRPFPRPFPRPFPRPL; Synthetic antimicrobial peptide) [compound 34]” was run?
Answer: 74%

Question: “35 (RRRPRPFPRPFPRPFPRPFPRPIPRPF; Synthetic antimicrobial peptide) [compound 35]” was tested. Which “Growth inhibition (%)” value did it give?
Answer: 78%

Question: Which “Growth inhibition (%)” value does the source give for “36 (RRRPRPFPRPFPRPFPRPFPRPIPRPI; Synthetic antimicrobial peptide) [compound 36]” here?
Answer: 77%

Question: “37 (RRRPRPFPRPFPRPFPRPIPRPFPRPV; Synthetic antimicrobial peptide) [compound 37]” was tested. Which “Growth inhibition (%)” value did it give?
Answer: 68%

Question: With “38 (RRRPRPFPRPFPRPFPRPIPRPVPRPI; Synthetic antimicrobial peptide) [compound 38]” as the substance, how does the “Growth inhibition (%)” value read?
Answer: 64%

Question: With “39 (RRRPRPFPRPFPRPFPRPLPRPFPRPF; Synthetic antimicrobial peptide) [compound 39]” as the substance, how does the “Growth inhibition (%)” value read?
Answer: 56%

Question: “40 (RRRPRPFPRPFPRPFPRPVPRPLPRPI; Synthetic antimicrobial peptide) [compound 40]” was tested. Which “Growth inhibition (%)” value did it give?
Answer: 69%

Question: “41 (RRRPRPFPRPFPRPFPRPVPRPLPRPV; Synthetic antimicrobial peptide) [compound 41]” was tested. Which “Growth inhibition (%)” value did it give?
Answer: 71%

Question: For “42 (RRRPRPFPRPFPRPIPRPFPRPLPRPI; Synthetic antimicrobial peptide) [compound 42]”, which “Growth inhibition (%)” value is on record?
Answer: 66%

Question: How did the “Growth inhibition (%)” value turn out when “43 (RRRPRPFPRPFPRPIPRPFPRPVPRPV; Synthetic antimicrobial peptide) [compound 43]” was run?
Answer: 68%

Question: For “44 (RRRPRPFPRPFPRPLPRPFPRPVPRPF; Synthetic antimicrobial peptide) [compound 44]”, which “Growth inhibition (%)” value is on record?
Answer: 95%

Question: Which “Growth inhibition (%)” value does the source give for “45 (RRRPRPFPRPFPRPLPRPIPRPFPRPV; Synthetic antimicrobial peptide) [compound 45]” here?
Answer: 69%

Question: “46 (RRRPRPFPRPFPRPVPRPFPRPFPRPI; Synthetic antimicrobial peptide) [compound 46]” was tested. Which “Growth inhibition (%)” value did it give?
Answer: 84%

Question: For “47 (RRRPRPFPRPFPRPVPRPIPRPFPRPF; Synthetic antimicrobial peptide) [compound 47]”, which “Growth inhibition (%)” value is on record?
Answer: 92%

Question: With “48 (RRRPRPFPRPFPRPVPRPVPRPVPRPF; Synthetic antimicrobial peptide) [compound 48]” as the substance, how does the “Growth inhibition (%)” value read?
Answer: 59%

Reference: US7833967B2, “Synthetic antimicrobial polypeptides” (priority 2003, dated 2010)
